Where only a bound is given, the exact number is not on record here.

Experiment [1] deals with THP-1. In words: Immunosuppressive activity in PMA-differentiated human THP1 cells assessed as inhibition of LPS-stimulated IL-6 production by flow cytometry. Type of experiment: functional, cell-based. (In general: In flow cytometry, cells or beads pass a laser one at a time.)
Another experiment deals with Candida albicans. Kind of experiment: Antifungal activity against Monilia albicans ATCC 10231 measured after 24 hrs by broth macrodilution method. It is filed as functional. The settings on record: ATCC 10231, 24 h.
In experiment [2] the test system is Trichophyton mentagrophytes. Kind of experiment: Antifungal activity against Trichophyton mentagrophytes ATCC 4439 by broth macrodilution method. It is filed as functional.
The next experiment deals with Trichophyton rubrum. Kind of experiment: Antifungal activity against Trichophyton rubrum ATCC 4438 measured after 4 to 7 days by broth macrodilution method. Type of experiment: functional.
The subject of experiment [3] is THP-1. In words: Cytotoxicity against human THP1 cells after 72 hrs by CCK8 assay. It is filed as functional, cell-based. Conditions: THP-1, 72 h. For orientation: Formazan colour is commonly taken as a measure of viable cells.
For a further experiment, the system named is A549. In words: Cytotoxicity against human A549 cells after 72 hrs by CCK8 assay. Type of experiment: functional, cell-based. The settings on record: A549, 72 h.
The next experiment relates to HepG2. In words: Cytotoxicity against human HepG2 cells after 72 hrs by CCK8 assay. Type of experiment: functional, cell-based. Conditions: HepG2, 72 h.

One may read the IC50 as the concentration at which inhibition is half-maximal. The term MIC denotes the smallest concentration in the dilution series that meets the test's criterion for growth inhibition. For the compound `CN1[C@H](CCCCCC(=O)O)C[C@H](O)[C@@H]1Cc1ccccc1`, the IC50 is 8.2 µM in the experiment with THP-1 [1], more than 20 µM with THP-1 [3], more than 20 µM in the experiment with A549 and more than 20 µM with HepG2. For the same compound, the MIC (against Candida albicans; in experiment [2]; in the experiment on Trichophyton rubrum) was more than 50 µg/mL in each case.
For `CN1[C@H](CCCCCCC(=O)O)C[C@H](O)[C@@H]1Cc1ccccc1`, the IC50 with THP-1 [1] is 9.9 µM; in the experiment with THP-1 [3], more than 20 µM; in the experiment with A549 it was more than 20 µM; in the experiment on HepG2, more than 20 µM. Also, the MIC (with Candida albicans; in experiment [2]; with Trichophyton rubrum) was more than 50 µg/mL throughout.
In the case of `CC(C)=CCC/C(C)=C/Cc1cc(-c2coc3cc(O)ccc3c2=O)ccc1O`, the IC50 in the experiment with THP-1 [1] was determined as 0.67 µM.
On to `CN1[C@H](CCC(=O)O)C[C@H](O)[C@@H]1Cc1ccccc1`, for which the IC50 with THP-1 [1] was 21 µM; in the experiment with THP-1 [3], more than 20 µM; in the experiment on A549, more than 20 µM; with HepG2, more than 20 µM. The MIC (against Candida albicans; in experiment [2]; with Trichophyton rubrum) was more than 50 µg/mL in each case.
Regarding `CN1[C@H](CCCCC(=O)O)C[C@H](O)[C@@H]1Cc1ccccc1`, the IC50 in the experiment on THP-1 [1] was 22 µM; with THP-1 [3], more than 20 µM; in the experiment on A549 it was more than 20 µM; in the experiment with HepG2 it was more than 20 µM. Also, the MIC (in the experiment with Candida albicans; in experiment [2]; in the experiment with Trichophyton rubrum) was more than 50 µg/mL throughout.
With `CC[C@@H](O)CCCCCC[C@@H]1C[C@H](O)[C@H](Cc2ccccc2)N1C`, the IC50 is 0.19 µM with THP-1 [1], more than 20 µM in the experiment with THP-1 [3], more than 20 µM with A549 and more than 20 µM in the experiment on HepG2. In addition, the MIC (in the experiment with Candida albicans; in experiment [2]; in the experiment on Trichophyton rubrum) was more than 50 µg/mL in each case.
As for `C[C@@H](O)CCCCCCC[C@@H]1C[C@H](O)[C@H](Cc2ccccc2)N1C`, the IC50 with THP-1 [1] was 14 µM; in the experiment on THP-1 [3], more than 20 µM; in the experiment on A549 it was more than 20 µM; in the experiment on HepG2, more than 20 µM. Besides, the MIC (with Candida albicans; in experiment [2]; with Trichophyton rubrum) was more than 50 µg/mL each time.
For the compound `CN1[C@H](CCCCCCCCC(=O)O)C[C@H](O)[C@@H]1Cc1ccccc1`, the IC50 was 0.11 µM in the experiment with THP-1 [1], more than 20 µM in the experiment on THP-1 [3], more than 20 µM with A549 and more than 20 µM in the experiment with HepG2. The minimal inhibitory concentration (MIC) (against Candida albicans; in experiment [2]; with Trichophyton rubrum) was more than 50 µg/mL throughout.
As for `CCCC(O)CCCCC[C@@H]1C[C@H](O)[C@H](Cc2ccccc2)N1C` (mixture of isomers), the IC50 in the experiment with THP-1 [1] was 16 µM; in the experiment with THP-1 [3], more than 20 µM; in the experiment with A549, more than 20 µM; with HepG2, more than 20 µM. Besides, the MIC (in the experiment with Candida albicans; in experiment [2]; in the experiment on Trichophyton rubrum) was more than 50 µg/mL each time.
As to `CC(O)CCCCC[C@@H]1C[C@H](O)[C@H](Cc2ccccc2)N1C` (mixture of isomers), the 50% inhibitory concentration (IC50) with THP-1 [1] was 2.3 µM; in the experiment on THP-1 [3] it was more than 20 µM; in the experiment with A549, more than 20 µM; with HepG2, more than 20 µM. Also, the MIC (with Candida albicans; in experiment [2]; in the experiment on Trichophyton rubrum) was more than 50 µg/mL throughout.

Source of the values: ChEMBL document CHEMBL4196246, “Preussins with Inhibition of IL-6 Expression from Aspergillus flocculosus 16D-1, a Fungus Isolated from the Marine Sponge Phakellia fusca” (J Nat Prod, 2018).
